Consider four compounds from ChEMBL document CHEMBL1121424, “Orally active cephalosporins and penicillins” (J Med Chem, 1980).

Converted amounts (≈) assume the structure as drawn. Bounds are passed on as bounds.

The test system of data set [1] is Enterococcus faecalis. As to the kind of experiment: Tested for inhibition of visible growth of Streptococcus faecalis. Format: functional.
The subject of data set [2] is Escherichia coli. As to the kind of experiment: Tested for inhibition of visible growth of Escherichia coli. Format: functional.
The test system of data set [3] is Klebsiella aerogenes. As to the kind of experiment: Tested for inhibition of visible growth of Enterobacter aerogenes. Format: functional.
In data set [4] the test system is Escherichia coli. As to the kind of experiment: Tested for the antimicrobial activity against Escherichia coli in mice. Type of data set: functional.
Data set [5] concerns Enterobacter cloacae. As to the kind of experiment: Tested for inhibition of visible growth of Enterobacter cloacae. Type of data set: functional.
The test system of data set [6] is Staphylococcus aureus. As to the kind of experiment: Tested for inhibition of visible growth of Staphylococcus aureus. Type of data set: functional.
The test system of data set [7] is Staphylococcus aureus. As to the kind of experiment: Tested for inhibition of visible growth of Staphylococcus aureus, benzyl-penicillin sensitive. Type of data set: functional.
Data set [8] in a line: (§1) Tested for the antimicrobial activity against Salmonella schottmuelleri in mice. Format: functional.
For data set [9], the system named is Streptococcus pneumoniae. As to the kind of experiment: Tested for inhibition of visible growth of Streptococcus pneumoniae. Format: functional.
For data set [10], the system named is Proteus mirabilis. As to the kind of experiment: Tested for inhibition of visible growth of Proteus mirabilis. Type of data set: functional.
The test system of data set [11] is Klebsiella pneumoniae. As to the kind of experiment: Tested for inhibition of visible growth of Klebsiella pneumoniae. Format: functional.
Data set [12] can be described thus: Tested for inhibition of visible growth of Salmonella schottmuelleri. Type of data set: functional.
Data set [13] deals with Streptococcus pyogenes. As to the kind of experiment: Tested for inhibition of visible growth of Streptococcus pyogenes. Format: functional.
Data set [14] can be described thus: as §1. Type of data set: functional. This is another data set of the same source.
Data set [15] deals with Streptococcus pyogenes. As to the kind of experiment: (§2) Tested for the antimicrobial activity against Streptococcus pyogenes in mice. Type of data set: functional.
For data set [16], the system named is Escherichia coli. As to the kind of experiment: Tested for the antimicrobial activity against Escherichia coli in mice perorally. Type of data set: functional. The following applies: po.
Data set [17] deals with Mus musculus. As to the kind of experiment: Tested for the antimicrobial activity against Streptococcus pyogenes in mice, subcutaneously. Format: functional. The following applies: sc.
Data set [18] concerns Streptococcus pyogenes. Described as §2. Type of data set: functional. The source holds these as a separate data set.
In data set [19] the test system is Streptococcus pneumoniae. As to the kind of experiment: (§3) Tested for the antimicrobial activity against Streptococcus pneumoniae in mice. Type of data set: functional.
Data set [20] is filed under the species Mus musculus. As to the kind of experiment: Tested for the antimicrobial activity against Staphylococcus aureus, benzyl-penicillin resistant in mice, perorally. To be noted: po. Type of data set: functional.
In data set [21] the test system is Streptococcus pneumoniae. Described as §3. Type of data set: functional. This is another data set of the same source.
Data set [22] has as its system Staphylococcus aureus. As to the kind of experiment: Tested for the antimicrobial activity against Staphylococcus aureus. Format: functional.
For data set [23], the system named is Staphylococcus aureus. As to the kind of experiment: Tested for the antimicrobial activity against Staphylococcus aureus, benzyl-penicillin sensitive in mice, perorally. Format: functional. The following applies: po.
The nature of data set [24]: Tested for the peak time in mice following 39 mg/kg oral dose of cephalosporin. Type of data set: ADME, organism-based. Set-up: dose 39 mg/kg, route oral. The following applies: mouse, in vivo, read-out: Peak time (converted).
Data set [25] is described as follows: Tested for the peak time in mice following 40 mg/kg oral dose of cephalosporin. Type of data set: ADME, organism-based. Details: dose 40 mg/kg, route oral. The following applies: mouse, in vivo, read-out: Peak time (converted).

For `NC(C(=O)NC1C(=O)N2C(C(=O)O)=C(CSc3cn[nH]n3)CS[C@H]12)c1ccc2c(c1)CCO2` (some centres not stated), the MIC in [1] is 100 µg/mL (≈ 205 µM); in data set [2], 12.5 µg/mL (≈ 25.6 µM); in data set [3], 25 µg/mL (≈ 51.2 µM); in data set [5], 50 µg/mL (≈ 102 µM); in [6], 1.6 µg/mL (≈ 3.27 µM); in [7], 0.4 µg/mL (≈ 0.819 µM). The MIC is 0.1 µg/mL (≈ 0.205 µM) in data set [9]; 100 µg/mL (≈ 205 µM) in data set [10]; 6.2 µg/mL (≈ 12.7 µM) in [11]; 3.1 µg/mL (≈ 6.35 µM) in [12]; 0.1 µg/mL (≈ 0.205 µM) in data set [13]. Further, the ED50 in data set [4] is 11 mg/kg; in [8] it was greater than 40 mg/kg; in data set [14] it was 30 mg/kg; in data set [15] it was 0.27 mg/kg; in data set [16] it was 19 mg/kg; in [17], 0.19 mg/kg.

Take `CC1=C(C(=O)O)N2C(=O)C(NC(=O)[C@H](N)c3ccc4c(c3)OCCO4)C2SC1` (some centres not stated): the MIC was greater than 100 µg/mL in data set [1]; greater than 100 µg/mL in data set [2]; greater than 100 µg/mL in data set [3]; greater than 100 µg/mL in data set [5]; 3.1 µg/mL (≈ 7.65 µM) in [6]; 0.8 µg/mL (≈ 1.97 µM) in data set [7]. In addition, the MIC in data set [9] was 0.8 µg/mL (≈ 1.97 µM); in data set [10], greater than 100 µg/mL; in data set [11], 100 µg/mL (≈ 247 µM); in [12], 50 µg/mL (≈ 123 µM); in data set [13] it was 0.4 µg/mL (≈ 0.987 µM). Further, the ED50 is 0.81 mg/kg in data set [18]; 14 mg/kg in data set [19]; 8.3 mg/kg in data set [20]; 1 mg/kg in [15]; 15 mg/kg in [21]; 1.5 mg/kg in data set [22]. Besides, the ED50 in [23] was determined as 0.5 mg/kg.

`CC1=C(C(=O)O)N2C(=O)C(NC(=O)[C@H](N)c3ccc4c(c3)CCO4)C2SC1` (some centres not stated): the MIC in [1] was greater than 100 µg/mL; in data set [2], 50 µg/mL (≈ 128 µM); in [3], greater than 100 µg/mL; in data set [5], greater than 100 µg/mL; in data set [6], 1.6 µg/mL (≈ 4.11 µM); in [7] it was 0.4 µg/mL (≈ 1.03 µM). In addition, the minimal inhibitory concentration (MIC) is 0.4 µg/mL (≈ 1.03 µM) in [9]; greater than 100 µg/mL in [10]; 25 µg/mL (≈ 64.2 µM) in [11]; 12.5 µg/mL (≈ 32.1 µM) in data set [12]; 0.2 µg/mL (≈ 0.514 µM) in data set [13]. In addition, the ED50 was 0.34 mg/kg in [18]; 10 mg/kg in [19]; 7 mg/kg in data set [20]; 0.37 mg/kg in data set [15]; 8.6 mg/kg in data set [21]; 0.63 mg/kg in data set [22]. The same compound displayed an ED50 in [23] of 0.67 mg/kg. For the same compound, the Tmax in data set [24] is 10 min.

Turning to `CC1=C(C(=O)O)N2C(=O)C(NC(=O)[C@H](N)c3ccc4c(c3)OCO4)C2SC1` (some centres not stated), the MIC in data set [1] is greater than 100 µg/mL; in data set [2], 25 µg/mL (≈ 63.9 µM); in [3], greater than 100 µg/mL; in [5], greater than 100 µg/mL; in data set [6], 3.1 µg/mL (≈ 7.92 µM); in data set [7] it was 0.4 µg/mL (≈ 1.02 µM). Also, the MIC in data set [9] was 1.6 µg/mL (≈ 4.09 µM); in data set [10], greater than 100 µg/mL; in data set [11], 25 µg/mL (≈ 63.9 µM); in data set [12], 12.5 µg/mL (≈ 31.9 µM); in [13] it was 0.8 µg/mL (≈ 2.04 µM). For the same compound, the ED50 in data set [18] worked out at 1.4 mg/kg; in data set [19] it was 26 mg/kg; in [4], 15 mg/kg; in [20], 3.1 mg/kg; in data set [8], 37 mg/kg; in [14], 33 mg/kg. Also, the ED50 in data set [15] came to 1 mg/kg; in [21], 19 mg/kg; in data set [22] it was 0.45 mg/kg; in [16] it was 28 mg/kg; in data set [23] it was 0.61 mg/kg. The Tmax in data set [25] was 10 min.

A word on the MIC: it is the smallest concentration in the dilution series that meets the test's criterion for growth inhibition. Read a low MIC as greater potency. Broadly, the ED50 is the dose at which the effect has come halfway, by size or by number of responders. A low value points to an effect at a small dose.
